SMILES strings stand for the structures. pIC50: −log10 of the molar value.

For orientation: pIC50 means the IC50 on a negative log10 scale, so that one unit is a factor of ten.

The target in assay [1] is NAMPT (human, recombinant, C-terminally His-tagged) (Homo sapiens, UniProt P43490). Put plainly: Time-Resolved Fluorescence Resonance Energy Transfer (TR-FRET) Binding Assay of NAMPT. The conditions noted are these: 6.8 nM NAMPT, 200 nM probe, equilibrated 3 hours, absence of substrates. As for the experimental part: Determination of the utility of compounds having Formula (I) as binders to and inhibitors of NAMPT was performed using Time-Resolved Fluorescence Resonance Energy Transfer (TR-FRET) binding assays.
Chain of NAMPT (human, recombinant, C-terminally His-tagged) (P43490 whole entry): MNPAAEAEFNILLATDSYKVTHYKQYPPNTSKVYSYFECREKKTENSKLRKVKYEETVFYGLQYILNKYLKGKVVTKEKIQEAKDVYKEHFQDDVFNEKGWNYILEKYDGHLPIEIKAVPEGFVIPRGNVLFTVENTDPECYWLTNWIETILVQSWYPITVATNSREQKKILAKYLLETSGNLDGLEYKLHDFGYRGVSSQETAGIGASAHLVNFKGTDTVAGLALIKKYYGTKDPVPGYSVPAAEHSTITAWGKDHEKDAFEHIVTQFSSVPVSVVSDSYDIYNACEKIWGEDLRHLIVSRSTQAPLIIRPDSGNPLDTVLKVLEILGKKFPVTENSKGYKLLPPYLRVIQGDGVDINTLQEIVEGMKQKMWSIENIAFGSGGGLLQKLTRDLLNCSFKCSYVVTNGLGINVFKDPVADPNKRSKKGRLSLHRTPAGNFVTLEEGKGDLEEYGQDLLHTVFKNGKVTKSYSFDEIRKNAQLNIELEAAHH
Time-Resolved Fluorescence Resonance Energy Transfer (TR-FRET) Binding Assay of NAMPT
Test compounds were serially diluted (typically 11 half log dilutions) in neat DMSO to 50× final concentrations prior to dilution with assay buffer (50 mM HEPES (NaOH), pH 7.5, 100 mM NaCl, 10 mM MgCl2, 1 mM DTT, 1% Glycerol) to 3× and 6% DMSO. Six μL were transferred to 384-well low-volume plates (Owens Corning #3673). To this, 12 μL of a 1.5× solution containing enzyme, probe and antibody were added. Final concentrations in the 18 μL, reactions were 1× assay buffer, 2% DMSO, 6.8 nM NAMPT (human, recombinant, C-terminally His-tagged), 200 nM probe (a potent nicotinamide-competitive inhibitor conjugated to Oregon Green 488) and 1 nM Tb-anti-His antibody (Invitrogen #PV5895). Reactions were equilibrated at room temperature for 3 hours prior to reading on an Envision multi-label plate reader (Perkin Elmer; Ex=337 nm, Em=520 and 495 nm). Time-resolved FRET ratios (Em520/Em495) were normalized to controls, plotted as a function of compound concentration and fit with the four-parameter logistic equation to determine IC50s.
(In general: Time-resolved FRET reads energy transfer from a long-lived donor to a nearby acceptor.)

For a further assay, the target named is NAMPT (Homo sapiens, UniProt P43490). Description: Time-Resolved Fluorescence Resonance Energy Transfer (TR-FRET) Binding Assay of NAMPT with PRPP. The conditions noted are these: 2 nM NAMPT, 2 nM probe, 200 uM PRPP and 2.5 mM ATP, equilibrated 16 hours. The method, then:
Time-Resolved Fluorescence Resonance Energy Transfer (TR-FRET) Binding Assay of NAMPT with PRPP
Compound handling and data processing were identical to the assay in the absence of substrates (above). Final concentrations were 1× assay buffer, 2% DMSO, 2 nM NAMPT, 2 nM probe, 1 nM Tb-anti-His antibody (Invitrogen #PV5895), 200 uM PRPP and 2.5 mM ATP. Reactions were equilibrated for 16 hours prior to measurement to allow for potential enzymatic modification of test compounds.

Chain of NAMPT (P43490 whole entry): as above

Turning to `CC(C)(O)C(=O)N1CCC(Oc2ccc(C(=O)NC3CN(c4cccnc4)C3)cc2)CC1` [Example 24, 4-{[1-(2-hydroxy-2-methylpropanoyl)piperidin-4-yl]oxy}-N-[1-(pyridin-3-yl)azetidin-3-yl]benzamide], the pIC50 in assay [1] was 5.23; at NAMPT, 9.06.
In the same order, the values of `O=C(Nc1ccc(C2CCN(C(=O)CC3CCOCC3)CC2)cc1)C1CN(c2cccnc2)C1` [Example 25, 1-(pyridin-3-yl)-N-{4-[1-(tetrahydro-2H-pyran-4-ylacetyl)piperidin-4-yl]phenyl}azetidine-3-carboxamide] are 7.55 and 9.22.
With `O=C(Nc1ccc(C2CCN(C(=O)c3ccccc3)CC2)cc1)C1CN(c2cccnc2)C1` [Example 26, N-[4-(1-benzoylpiperidin-4-yl)phenyl]-1-(pyridin-3-yl)azetidine-3-carboxamide], the negative logarithm of the IC50 (pIC50) in assay [1] is 8.30; at NAMPT it was 9.12.
For `Cc1ncccc1N1CC(C(=O)Nc2ccc(C3CCN(C(=O)C(C)C)CC3)cc2)C1` [Example 29, N-{4-[1-(2-methylpropanoyl)piperidin-4-yl]phenyl}-1-(2-methylpyridin-3-yl)azetidine-3-carboxamide] the same measures were 7.10 and 7.78.
Turning to `CC(C)C(=O)N1CCC(c2ccc(NC(=O)C3CN(c4cccnc4)C3)cc2)CC1` [Example 30, N-{4-[1-(2-methylpropanoyl)piperidin-4-yl]phenyl}-1-(pyridin-3-yl)azetidine-3-carboxamide], the figures for the pIC50 (in assay [1]; at NAMPT) were 7.82 and 9.57, respectively.
In the case of `CC(C)(O)C(=O)N1CCC(Oc2ccc(NC(=O)C3CN(c4cccnc4)C3)cc2)CC1` [Example 31, N-(4-{[1-(2-hydroxy-2-methylpropanoyl)piperidin-4-yl]oxy}phenyl)-1-(pyridin-3-yl)azetidine-3-carboxamide], the pIC50 in assay [1] is 6.87; on NAMPT it was 9.16.
In the case of `CC[C@H](C)C(=O)N1CCC(Oc2ccc(NC(=O)C3CN(c4cccnc4)C3)cc2)CC1` [Example 32, N-[4-({1-[(2S)-2-methylbutanoyl]piperidin-4-yl}oxy)phenyl]-1-(pyridin-3-yl)azetidine-3-carboxamide], the pIC50 in assay [1] was 7.99; at NAMPT it was 9.55.
With `O=C(Nc1ccc(OC2CCN(C(=O)[C@@H]3CCCO3)CC2)cc1)C1CN(c2cccnc2)C1` [Example 33, 1-(pyridin-3-yl)-N-[4-({1-[(2S)-tetrahydrofuran-2-ylcarbonyl]piperidin-4-yl}oxy)phenyl]azetidine-3-carboxamide], the pIC50 is 6.96 in assay [1] and 9.47 on NAMPT.
With `CCCCC(=O)N1CCC(Oc2ccc(NC(=O)C3CN(c4cccnc4)C3)cc2)CC1` [Example 34, N-{4-[(1-pentanoylpiperidin-4-yl)oxy]phenyl}-1-(pyridin-3-yl)azetidine-3-carboxamide], the pIC50 in assay [1] was 7.15; on NAMPT, 9.05.
In the case of `CC1CC1C(=O)N1CCC(Oc2ccc(NC(=O)C3CN(c4cccnc4)C3)cc2)CC1` (stereo not shown) [Example 35, N-[4-({1-[(2-methylcyclopropyl)carbonyl]piperidin-4-yl}oxy)phenyl]-1-(pyridin-3-yl)azetidine-3-carboxamide], the negative-log IC50 (pIC50) in assay [1] was 7.04; at NAMPT it was 9.06.
With `O=C(Nc1ccc(OC2CCN(C(=O)CC3C[C@@H]4CC[C@H]3C4)CC2)cc1)C1CN(c2cccnc2)C1` (stereo partly drawn) [Example 36, N-[4-({1-[(1S,4R)-bicyclo[2.2.1]hept-2-ylacetyl]piperidin-4-yl}oxy)phenyl]-1-(pyridin-3-yl)azetidine-3-carboxamide], the values for the pIC50 (in assay [1]; on NAMPT) were 7.40 and 9.05, respectively.
In the case of `CC(C)CCC(=O)N1CCC(Oc2ccc(NC(=O)C3CN(c4cccnc4)C3)cc2)CC1` [Example 37, N-(4-{[1-(4-methylpentanoyl)piperidin-4-yl]oxy}phenyl)-1-(pyridin-3-yl)azetidine-3-carboxamide], the pIC50 in assay [1] is 7.16; on NAMPT, 9.01.
For the compound `CCC(C)CC(=O)N1CCC(Oc2ccc(NC(=O)C3CN(c4cccnc4)C3)cc2)CC1` (stereo not shown) [Example 38, N-(4-{[1-(3-methylpentanoyl)piperidin-4-yl]oxy}phenyl)-1-(pyridin-3-yl)azetidine-3-carboxamide], the negative logarithm of the IC50 (pIC50) in assay [1] was 7.33; on NAMPT it was 9.05.
In the same order, the values of `CCOCCC(=O)N1CCC(Oc2ccc(NC(=O)C3CN(c4cccnc4)C3)cc2)CC1` [Example 39, N-(4-{[1-(3-ethoxypropanoyl)piperidin-4-yl]oxy}phenyl)-1-(pyridin-3-yl)azetidine-3-carboxamide] are 6.98 and 8.98.
Take `CCC(C)(C)C(=O)N1CCC(Oc2ccc(NC(=O)C3CN(c4cccnc4)C3)cc2)CC1` [Example 40, N-(4-{[1-(2,2-dimethylbutanoyl)piperidin-4-yl]oxy}phenyl)-1-(pyridin-3-yl)azetidine-3-carboxamide]: the negative logarithm of the IC50 (pIC50) is 7.37 in assay [1] and 9.31 on NAMPT.
With `CC(C)(C)CC(=O)N1CCC(Oc2ccc(NC(=O)C3CN(c4cccnc4)C3)cc2)CC1` [Example 41, N-(4-{[1-(3,3-dimethylbutanoyl)piperidin-4-yl]oxy}phenyl)-1-(pyridin-3-yl)azetidine-3-carboxamide], the pIC50 in assay [1] was 7.16; on NAMPT, 9.11.
As for `CC(C)(C)C(=O)N1CCC(Oc2ccc(NC(=O)C3CN(c4cccnc4)C3)cc2)CC1` [Example 42, N-(4-{[1-(2,2-dimethylpropanoyl)piperidin-4-yl]oxy}phenyl)-1-(pyridin-3-yl)azetidine-3-carboxamide], the pIC50 is 6.65 in assay [1] and 8.62 on NAMPT.
For the compound `CCCC(=O)N1CCC(Oc2ccc(NC(=O)C3CN(c4cccnc4)C3)cc2)CC1` [Example 43, N-{4-[(1-butanoylpiperidin-4-yl)oxy]phenyl}-1-(pyridin-3-yl)azetidine-3-carboxamide], the pIC50 in assay [1] was 7.06; at NAMPT it was 9.10.
`CCOCC(=O)N1CCC(Oc2ccc(NC(=O)C3CN(c4cccnc4)C3)cc2)CC1` [Example 44, N-(4-{[1-(ethoxyacetyl)piperidin-4-yl]oxy}phenyl)-1-(pyridin-3-yl)azetidine-3-carboxamide]: the negative-log IC50 (pIC50) in assay [1] was 6.86; at NAMPT, 9.00.
Consider `CC(C)CC(=O)N1CCC(Oc2ccc(NC(=O)C3CN(c4cccnc4)C3)cc2)CC1` [Example 45, N-(4-{[1-(3-methylbutanoyl)piperidin-4-yl]oxy}phenyl)-1-(pyridin-3-yl)azetidine-3-carboxamide], for which the negative-log IC50 (pIC50) in assay [1] was 7.06; at NAMPT it was 8.97.
In the same order, the values of `CC(C)C(=O)N1CCC(Oc2ccc(NC(=O)C3CN(c4cccnc4)C3)cc2)CC1` [Example 46, N-(4-{[1-(2-methylpropanoyl)piperidin-4-yl]oxy}phenyl)-1-(pyridin-3-yl)azetidine-3-carboxamide] are 7.03 and 8.99.
In the same order, the values of `CC(=O)N[C@@H](CC(C)C)C(=O)N1CCC(Oc2ccc(NC(=O)C3CN(c4cccnc4)C3)cc2)CC1` [Example 47, N-(4-{[1-(N-acetyl-L-leucyl)piperidin-4-yl]oxy}phenyl)-1-(pyridin-3-yl)azetidine-3-carboxamide] are 7.09 and 8.75.
Consider `COCCOCC(=O)N1CCC(Oc2ccc(NC(=O)C3CN(c4cccnc4)C3)cc2)CC1` [Example 48, N-[4-({1-[(2-methoxyethoxy)acetyl]piperidin-4-yl}oxy)phenyl]-1-(pyridin-3-yl)azetidine-3-carboxamide], for which the negative logarithm of the IC50 (pIC50) in assay [1] was 6.95; at NAMPT, 9.06.
For `O=C(Nc1ccc(OC2CCN(C(=O)C3CCCCC3)CC2)cc1)C1CN(c2cccnc2)C1` [Example 49, N-(4-{[1-(cyclohexylcarbonyl)piperidin-4-yl]oxy}phenyl)-1-(pyridin-3-yl)azetidine-3-carboxamide], the pIC50 is 7.18 in assay [1] and 8.99 at NAMPT.
For `O=C(Nc1ccc(OC2CCN(C(=O)CC3CCCCC3)CC2)cc1)C1CN(c2cccnc2)C1` [Example 50, N-(4-{[1-(cyclohexylacetyl)piperidin-4-yl]oxy}phenyl)-1-(pyridin-3-yl)azetidine-3-carboxamide] the same measures were 7.20 and 8.96.
As for `O=C(Nc1ccc(OC2CCN(C(=O)CCC(F)(F)F)CC2)cc1)C1CN(c2cccnc2)C1` [Example 51, 1-(pyridin-3-yl)-N-(4-{[1-(4,4,4-trifluorobutanoyl)piperidin-4-yl]oxy}phenyl)azetidine-3-carboxamide], the pIC50 in assay [1] is 6.96; on NAMPT it was 8.93.

For the origin of these results see patent US8975398B2, “NAMPT inhibitors” (AbbVie Inc., priority 2012, dated 2015).
